Experiments:
Assay in all cases: relative viability (nuclei count vs DMSO), 5 days (fraction); higher = more cells survive
A-427 = tested on: A-427
Method in brief: (§1)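 Five library-drug doses in √10 steps were combined with a fixed anchor-drug dose, or a single drug was given alone, by pin tool to lung cancer cell lines in 1536-well plates the day after seeding. Nuclei were stained and counted after 5 days. Relative viability is the nuclei count in treated wells over that in vehicle wells, taken as the median of duplicate plates.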

HCC-15 = tested on: HCC-15
Method in brief: as §1

HCC-78 = tested on: HCC-78
Method in brief: as §1

HOP-62 = tested on: HOP-62
Method in brief: as §1

LC-2-ad = tested on: LC-2-ad
Method in brief: as §1

LOU-NH91 = tested on: LOU-NH91
Method in brief: as §1

LXF-289 = tested on: LXF-289
Method in brief: as §1

NCI-H1734 = tested on: NCI-H1734
Method in brief: as §1

NCI-H1755 = tested on: NCI-H1755
Method in brief: as §1

NCI-H1792 = tested on: NCI-H1792
Method in brief: as §1

NCI-H1915 = tested on: NCI-H1915
Method in brief: as §1

NCI-H1975 = tested on: NCI-H1975
Method in brief: as §1

NCI-H2126 = tested on: NCI-H2126
Method in brief: as §1

NCI-H2228 = tested on: NCI-H2228
Method in brief: as §1

NCI-H2342 = tested on: NCI-H2342
Method in brief: as §1

NCI-H2347 = tested on: NCI-H2347
Method in brief: as §1

NCI-H358 = tested on: NCI-H358
Method in brief: as §1

NCI-H460 = tested on: NCI-H460
Method in brief: as §1

NCI-H647 = tested on: NCI-H647
Method in brief: as §1

PC-3 [JPC-3] = tested on: PC-3 [JPC-3]
Method in brief: as §1

RERF-LC-KJ = tested on: RERF-LC-KJ
Method in brief: as §1

SK-LU-1 = tested on: SK-LU-1
Method in brief: as §1

SW 1573 = tested on: SW 1573
Method in brief: as §1

O=C(O)c1ccc(-c2c[nH]c3ncc(-c4ccccc4)cc23)cc1C1CCCC1 + CC(=O)c1c(C)c2cnc(Nc3ccc(N4CCNCC4)cn3)nc2n(C2CCCC2)c1=O [Palbociclib] (partner 0.5 µM)
relative viability (A-427; first compound 0.04 µM): 0.536 | relative viability (A-427; first compound 0.1265 µM): 0.526 | relative viability (A-427; first compound 0.4 µM): 0.485 | relative viability (A-427; first compound 1.265 µM): 0.48 | relative viability (HCC-15; first compound 0.04 µM): 0.793 | relative viability (HCC-15; first compound 0.1265 µM): 0.762 | relative viability (HCC-15; first compound 0.4 µM): 0.631 | relative viability (HCC-15; first compound 1.265 µM): 0.431 | relative viability (HCC-78; first compound 0.04 µM): 0.494 | relative viability (HCC-78; first compound 0.1265 µM): 0.467 | relative viability (HCC-78; first compound 0.4 µM): 0.488 | relative viability (HCC-78; first compound 1.265 µM): 0.435 | relative viability (HOP-62; first compound 0.04 µM): 0.426 | relative viability (HOP-62; first compound 0.1265 µM): 0.414 | relative viability (HOP-62; first compound 0.4 µM): 0.443 | relative viability (HOP-62; first compound 1.265 µM): 0.434 | relative viability (LC-2-ad; first compound 0.04 µM): 0.425 | relative viability (LC-2-ad; first compound 0.1265 µM): 0.541 | relative viability (LC-2-ad; first compound 0.4 µM): 0.489 | relative viability (LC-2-ad; first compound 1.265 µM): 0.42 | relative viability (LOU-NH91; first compound 0.04 µM): 0.593 | relative viability (LOU-NH91; first compound 0.1265 µM): 0.517 | relative viability (LOU-NH91; first compound 0.4 µM): 0.525 | relative viability (LOU-NH91; first compound 1.265 µM): 0.469 | relative viability (LXF-289; first compound 0.04 µM): 0.573 | relative viability (LXF-289; first compound 0.1265 µM): 0.584 | relative viability (LXF-289; first compound 0.4 µM): 0.57 | relative viability (LXF-289; first compound 1.265 µM): 0.521 | relative viability (NCI-H1734; first compound 0.04 µM): 0.324 | relative viability (NCI-H1734; first compound 0.1265 µM): 0.328 | relative viability (NCI-H1734; first compound 0.4 µM): 0.302 | relative viability (NCI-H1734; first compound 1.265 µM): 0.344 | relative viability (NCI-H1755; first compound 0.04 µM): 0.434 | relative viability (NCI-H1755; first compound 0.1265 µM): 0.495 | relative viability (NCI-H1755; first compound 0.4 µM): 0.417 | relative viability (NCI-H1755; first compound 1.265 µM): 0.48 | relative viability (NCI-H1792; first compound 0.1265 µM): 0.681 | relative viability (NCI-H1792; first compound 0.4 µM): 0.657 | relative viability (NCI-H1792; first compound 1.265 µM): 0.691 | relative viability (NCI-H1915; first compound 0.04 µM): 0.553 | relative viability (NCI-H1915; first compound 0.1265 µM): 0.527 | relative viability (NCI-H1915; first compound 0.4 µM): 0.452 | relative viability (NCI-H1915; first compound 1.265 µM): 0.428 | relative viability (NCI-H1975; first compound 0.04 µM): 0.588 | relative viability (NCI-H1975; first compound 0.1265 µM): 0.55 | relative viability (NCI-H1975; first compound 0.4 µM): 0.585 | relative viability (NCI-H1975; first compound 1.265 µM): 0.475 | relative viability (NCI-H2126; first compound 0.04 µM): 0.361 | relative viability (NCI-H2126; first compound 0.1265 µM): 0.358 | relative viability (NCI-H2126; first compound 0.4 µM): 0.369 | relative viability (NCI-H2126; first compound 1.265 µM): 0.345 | relative viability (NCI-H2228; first compound 0.04 µM): 0.885 | relative viability (NCI-H2228; first compound 0.1265 µM): 0.736 | relative viability (NCI-H2228; first compound 0.4 µM): 0.886 | relative viability (NCI-H2228; first compound 1.265 µM): 0.5 | relative viability (NCI-H2342; first compound 0.04 µM): 0.465 | relative viability (NCI-H2342; first compound 0.1265 µM): 0.568 | relative viability (NCI-H2342; first compound 0.4 µM): 0.479 | relative viability (NCI-H2342; first compound 1.265 µM): 0.517 | relative viability (NCI-H2347; first compound 0.04 µM): 0.453 | relative viability (NCI-H2347; first compound 0.1265 µM): 0.446 | relative viability (NCI-H2347; first compound 0.4 µM): 0.386 | relative viability (NCI-H2347; first compound 1.265 µM): 0.438 | relative viability (NCI-H358; first compound 0.04 µM): 0.128 | relative viability (NCI-H358; first compound 0.1265 µM): 0.12 | relative viability (NCI-H358; first compound 0.4 µM): 0.124 | relative viability (NCI-H358; first compound 1.265 µM): 0.0876 | relative viability (NCI-H460; first compound 0.04 µM): 0.274 | relative viability (NCI-H460; first compound 0.1265 µM): 0.203 | relative viability (NCI-H460; first compound 0.4 µM): 0.23 | relative viability (NCI-H460; first compound 1.265 µM): 0.146 | relative viability (NCI-H647; first compound 0.04 µM): 0.399 | relative viability (NCI-H647; first compound 0.1265 µM): 0.434 | relative viability (NCI-H647; first compound 0.4 µM): 0.453 | relative viability (NCI-H647; first compound 1.265 µM): 0.33 | relative viability (PC-3 [JPC-3]; first compound 0.04 µM): 0.534 | relative viability (PC-3 [JPC-3]; first compound 0.1265 µM): 0.553 | relative viability (PC-3 [JPC-3]; first compound 0.4 µM): 0.538 | relative viability (PC-3 [JPC-3]; first compound 1.265 µM): 0.499 | relative viability (RERF-LC-KJ; first compound 0.04 µM): 1.01 | relative viability (RERF-LC-KJ; first compound 0.1265 µM): 1.02 | relative viability (RERF-LC-KJ; first compound 0.4 µM): 0.97 | relative viability (RERF-LC-KJ; first compound 1.265 µM): 0.875 | relative viability (SK-LU-1; first compound 0.04 µM): 0.358 | relative viability (SK-LU-1; first compound 0.1265 µM): 0.381 | relative viability (SK-LU-1; first compound 0.4 µM): 0.366 | relative viability (SK-LU-1; first compound 1.265 µM): 0.359 | relative viability (SW 1573; first compound 0.04 µM): 0.442 | relative viability (SW 1573; first compound 0.1265 µM): 0.355 | relative viability (SW 1573; first compound 0.4 µM): 0.309 | relative viability (SW 1573; first compound 1.265 µM): 0.268

— the supplement of paper PMC10307832
